These results are taken from paper PMC2276626, “Structure-Based Inhibitors Exhibit Differential Activities against Helicobacter pylori and Escherichia coli Undecaprenyl Pyrophosphate Synthases” (Journal of Biomedicine and Biotechnology, 2008).

Data set [1] concerns the target T1, Undecaprenyl pyrophosphate synthase (UPPS) (Helicobacter pylori, UniProt P55984).
T1 sequence (P55984 1-234): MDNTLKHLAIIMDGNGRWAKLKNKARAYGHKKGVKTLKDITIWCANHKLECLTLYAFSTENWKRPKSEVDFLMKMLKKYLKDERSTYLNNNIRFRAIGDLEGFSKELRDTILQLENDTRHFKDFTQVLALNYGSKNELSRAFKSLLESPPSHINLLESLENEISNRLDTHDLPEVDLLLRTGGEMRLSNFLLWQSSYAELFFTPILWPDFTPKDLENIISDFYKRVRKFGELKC
The experiment in a line: enzyme activity dose-response with […] UPPS. Type of data set: biochemical.

The target of data set [2] is T2, Undecaprenyl pyrophosphate synthase (UPPS) (Escherichia coli, UniProt P60472).
T2 construct: gene ispU
T2 sequence (P60472 whole entry): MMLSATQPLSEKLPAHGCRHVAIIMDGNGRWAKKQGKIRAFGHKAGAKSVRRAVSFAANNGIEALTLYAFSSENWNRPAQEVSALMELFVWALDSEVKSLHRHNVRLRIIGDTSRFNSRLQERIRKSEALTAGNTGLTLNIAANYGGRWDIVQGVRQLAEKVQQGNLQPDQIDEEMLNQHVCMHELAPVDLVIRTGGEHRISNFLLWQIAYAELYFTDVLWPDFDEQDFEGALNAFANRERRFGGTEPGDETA
The experiment in a line: enzyme activity dose-response with […] UPPS. Type of data set: biochemical.

The target in data set [3] is Undecaprenyl pyrophosphate synthase (UPPS) (Helicobacter pylori, UniProt P55984, C234A).
The test system of data set [4] is C=C(C)CCO[P@@](=O)(O)OP(=O)(O)O. Nature of the data set: steady-state enzyme kinetics (Km). Type of data set: biochemical, Helicobacter pylori. Conditions: Mg2+.
The subject of data set [5] is CC(C)=CCC/C(C)=C/CC/C(C)=C/CO[P@@](=O)(O)OP(=O)(O)O. Nature of the data set: steady-state enzyme kinetics (Km). Type of data set: biochemical, Helicobacter pylori. To be noted: Mg2+.
Substrate in data set [6]: CC(C)=CCC/C(C)=C/CC/C(C)=C/CO[P@@](=O)(O)OP(=O)(O)O
The experiment in a line: steady-state enzyme kinetics (Km). Type of data set: biochemical, Helicobacter pylori. To be noted: Mg2+. This is another data set of the same source.

Substrate in data set [7]: C=C(C)CCO[P@@](=O)(O)OP(=O)(O)O
The experiment in a line: steady-state enzyme kinetics (Km). Type of data set: biochemical, Helicobacter pylori. Conditions: Mg2+. This is another data set of the same source.

Regarding `O=S(=O)(CS(=O)(=O)Nc1nc2ccc(Cl)cc2s1)Nc1nc2ccc(Cl)cc2s1` [BTB06061], the IC50 in data set [1] was 350 µM; in data set [2], 71 µM. `NS(=O)(=O)c1cccc(-c2ccc(C3Nc4ccccc4-c4nc5ccccc5n43)o2)c1` (centres unmarked) [HTS04781]: the IC50 in data set [1] amounted to 362 µM. For the molecule `O=P(O)(O)OP(=O)(O)O` [pyrophosphate], the “X-ray crystal structure at 2.5 Å (crystals soaked with FsPP, IPP and MgCl2); only” value in data set [3] was “only the pyrophosphate of FsPP was found in the complex structure”. In the case of “Undecaprenyl pyrophosphate synthase (UPPS) (Helicobacter pylori 26695; C234A)”, the Km in data set [4] is 9.6 ± 0.2 µM; in data set [5], 0.15 ± 0.04 µM.

B1: Undecaprenyl pyrophosphate synthase (UPPS) (Helicobacter pylori 26695) (protein)
chain: MDNTLKHLAIIMDGNGRWAKLKNKARAYGHKKGVKTLKDITIWCANHKLECLTLYAFSTENWKRPKSEVDFLMKMLKKYLKDERSTYLNNNIRFRAIGDLEGFSKELRDTILQLENDTRHFKDFTQVLALNYGSKNELSRAFKSLLESPPSHINLLESLENEISNRLDTHDLPEVDLLLRTGGEMRLSNFLLWQSSYAELFFTPILWPDFTPKDLENIISDFYKRVRKFGELKC
In the case of B1, the figures for the Km in data set [6] and in data set [7] were 0.11 ± 0.02 µM and 9.2 ± 0.1 µM, respectively.
